ChEMBL document CHEMBL6120968, “Discovery of Thiadiazoleamide Derivatives as Potent, Selective, and Orally Available Antagonists Disrupting Androgen Receptor Homodimer” (J Med Chem, 2024)

Key:
[1] = molecular target: T1, Androgen receptor (Homo sapiens, UniProt P10275); test: Antagonist activity at Androgen receptor in human LNCaP cells transfected with ARR2PB-eGFP incubated for 3 days by synergy H1 microplate reader analysis; type: cell-based
T1 sequence (P10275 whole entry): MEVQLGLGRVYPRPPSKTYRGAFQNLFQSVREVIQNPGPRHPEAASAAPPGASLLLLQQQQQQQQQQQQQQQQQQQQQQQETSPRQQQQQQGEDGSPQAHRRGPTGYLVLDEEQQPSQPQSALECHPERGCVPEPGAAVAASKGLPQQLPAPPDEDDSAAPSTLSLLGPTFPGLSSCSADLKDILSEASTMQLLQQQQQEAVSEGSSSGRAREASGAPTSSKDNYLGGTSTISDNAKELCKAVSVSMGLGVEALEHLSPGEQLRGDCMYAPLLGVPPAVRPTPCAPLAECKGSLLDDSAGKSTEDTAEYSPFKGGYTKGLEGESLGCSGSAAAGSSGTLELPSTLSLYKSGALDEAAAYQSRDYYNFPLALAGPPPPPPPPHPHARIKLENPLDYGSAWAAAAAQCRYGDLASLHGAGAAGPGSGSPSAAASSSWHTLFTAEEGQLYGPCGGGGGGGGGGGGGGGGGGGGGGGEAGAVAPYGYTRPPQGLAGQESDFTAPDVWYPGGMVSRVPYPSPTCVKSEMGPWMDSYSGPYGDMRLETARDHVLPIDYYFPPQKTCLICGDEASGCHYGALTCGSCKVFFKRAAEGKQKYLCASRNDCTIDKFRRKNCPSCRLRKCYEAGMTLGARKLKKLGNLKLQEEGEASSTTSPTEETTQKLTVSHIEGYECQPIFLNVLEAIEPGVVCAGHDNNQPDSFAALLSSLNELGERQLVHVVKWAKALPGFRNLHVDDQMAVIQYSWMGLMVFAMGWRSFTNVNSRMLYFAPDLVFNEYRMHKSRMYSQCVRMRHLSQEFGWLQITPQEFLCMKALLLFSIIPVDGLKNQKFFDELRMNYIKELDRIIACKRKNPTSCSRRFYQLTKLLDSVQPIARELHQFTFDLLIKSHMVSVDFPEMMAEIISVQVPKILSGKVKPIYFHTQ

[2] = molecular target: hERG (KCNH2) (Homo sapiens, UniProt Q12809); test: Inhibition of hERG at 10 uM relative to control; type: toxicity
hERG (KCNH2), sequence (Q12809 whole entry): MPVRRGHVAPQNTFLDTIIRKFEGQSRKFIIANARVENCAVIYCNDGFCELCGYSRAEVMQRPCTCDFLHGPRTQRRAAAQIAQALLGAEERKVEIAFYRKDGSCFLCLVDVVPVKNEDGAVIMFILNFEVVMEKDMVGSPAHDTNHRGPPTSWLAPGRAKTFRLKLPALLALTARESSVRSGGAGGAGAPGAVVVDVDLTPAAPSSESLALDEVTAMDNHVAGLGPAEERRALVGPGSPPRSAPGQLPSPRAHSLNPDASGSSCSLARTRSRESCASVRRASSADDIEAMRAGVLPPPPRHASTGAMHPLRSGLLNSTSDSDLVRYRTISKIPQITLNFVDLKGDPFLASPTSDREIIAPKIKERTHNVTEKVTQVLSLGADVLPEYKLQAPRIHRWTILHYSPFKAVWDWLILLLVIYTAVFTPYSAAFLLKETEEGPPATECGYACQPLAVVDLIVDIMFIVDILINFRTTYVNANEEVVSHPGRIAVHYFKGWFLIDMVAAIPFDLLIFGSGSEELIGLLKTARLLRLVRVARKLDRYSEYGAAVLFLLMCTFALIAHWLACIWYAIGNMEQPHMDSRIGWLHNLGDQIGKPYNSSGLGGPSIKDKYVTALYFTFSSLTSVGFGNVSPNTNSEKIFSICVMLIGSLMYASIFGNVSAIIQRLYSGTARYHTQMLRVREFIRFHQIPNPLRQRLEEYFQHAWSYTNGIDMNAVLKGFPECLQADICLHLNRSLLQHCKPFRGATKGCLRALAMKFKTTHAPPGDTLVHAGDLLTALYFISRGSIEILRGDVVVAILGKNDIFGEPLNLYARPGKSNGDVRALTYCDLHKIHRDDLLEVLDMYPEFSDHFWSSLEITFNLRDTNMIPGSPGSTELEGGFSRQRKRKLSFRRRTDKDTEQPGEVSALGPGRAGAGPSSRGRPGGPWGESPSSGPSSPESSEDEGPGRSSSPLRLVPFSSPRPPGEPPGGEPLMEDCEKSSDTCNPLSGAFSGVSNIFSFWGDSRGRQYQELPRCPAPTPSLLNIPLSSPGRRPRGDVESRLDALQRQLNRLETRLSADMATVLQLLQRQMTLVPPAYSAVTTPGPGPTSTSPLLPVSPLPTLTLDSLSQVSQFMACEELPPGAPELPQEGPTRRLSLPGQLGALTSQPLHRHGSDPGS

[3] = tested on: NIH3T3; test: Antiproliferative activity against mouse 3T3 cells assessed as reduction in cell viability incubated for 3 days by MTT assay; type: toxicity, cell-based; conditions: nih3t3, 72 h, time 3 day
[4] = molecular target: T2, Progesterone receptor (Homo sapiens, UniProt P06401); test: Agonist activity at progesterone receptor (unknown origin)
T2 sequence (P06401 whole entry): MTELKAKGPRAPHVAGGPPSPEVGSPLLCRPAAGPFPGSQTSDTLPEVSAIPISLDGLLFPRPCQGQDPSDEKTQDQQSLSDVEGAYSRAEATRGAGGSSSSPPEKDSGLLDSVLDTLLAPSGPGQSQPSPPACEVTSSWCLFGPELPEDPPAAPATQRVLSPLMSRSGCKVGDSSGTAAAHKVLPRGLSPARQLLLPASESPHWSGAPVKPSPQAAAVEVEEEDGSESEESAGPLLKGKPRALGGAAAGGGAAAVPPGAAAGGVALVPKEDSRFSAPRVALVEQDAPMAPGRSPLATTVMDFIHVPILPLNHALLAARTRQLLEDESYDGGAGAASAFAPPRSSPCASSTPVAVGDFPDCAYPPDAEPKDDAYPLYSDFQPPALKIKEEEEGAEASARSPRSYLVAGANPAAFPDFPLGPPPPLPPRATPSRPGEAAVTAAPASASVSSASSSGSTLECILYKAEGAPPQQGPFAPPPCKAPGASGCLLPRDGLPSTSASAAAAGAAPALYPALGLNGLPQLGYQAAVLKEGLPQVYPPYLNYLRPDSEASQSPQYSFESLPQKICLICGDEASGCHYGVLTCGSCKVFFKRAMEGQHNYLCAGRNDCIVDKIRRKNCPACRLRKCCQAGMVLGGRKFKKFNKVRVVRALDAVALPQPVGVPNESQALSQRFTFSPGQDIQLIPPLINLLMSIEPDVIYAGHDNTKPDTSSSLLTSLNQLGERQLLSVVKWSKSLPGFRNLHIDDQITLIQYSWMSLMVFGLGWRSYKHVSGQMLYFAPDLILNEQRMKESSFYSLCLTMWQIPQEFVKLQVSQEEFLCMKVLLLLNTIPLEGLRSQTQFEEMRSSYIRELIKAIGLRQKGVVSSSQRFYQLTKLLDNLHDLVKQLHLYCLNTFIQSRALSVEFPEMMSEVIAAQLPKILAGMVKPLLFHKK

[5] = Tmax in rat at 20 mg/kg, po by LC-MS/MS analysis; type: ADME, organism-based; conditions: in vivo
[6] = Cmax in rat at 20 mg/kg, po by LC-MS/MS analysis; type: ADME, organism-based; conditions: in vivo
[7] = AUC (0 to t) in rat at 20 mg/kg, po by LC-MS/MS analysis; type: ADME, organism-based; conditions: in vivo
[8] = MRTlast in rat at 20 mg/kg, po by LC-MS/MS analysis; type: ADME, organism-based; conditions: in vivo
[9] = MRTlast in rat at 20 mg/kg, iv by LC-MS/MS analysis; type: ADME, organism-based; conditions: in vivo
[10] = Oral bioavailability in rat at 20 mg/kg by LC-MS/MS analysis; type: ADME, organism-based; conditions: in vivo
[11] = Microsomal stability in monkey liver microsome assessed as half life measured upto 60 mins in presence of NADPH and UDPGA by HPLC-MS/MS analysis; type: ADME, Macaca mulatta; conditions: rhesus monkey, liver microsomes
[12] = Microsomal stability in rat liver microsome assessed as half life measured upto 60 mins in presence of NADPH and UDPGA by HPLC-MS/MS analysis; type: ADME; conditions: liver microsomes
[13] = Microsomal stability in monkey liver microsome assessed as intrinsic clearance measured upto 60 mins in presence of NADPH and UDPGA by HPLC-MS/MS analysis; type: ADME, Macaca mulatta; conditions: rhesus monkey, liver microsomes, read-out: CLH
[14] = Microsomal stability in rat liver microsome assessed as intrinsic clearance measured upto 60 mins in presence of NADPH and UDPGA by HPLC-MS/MS analysis; type: ADME; conditions: liver microsomes, read-out: CLH
[15] = Microsomal stability in human liver microsome assessed as parent compound remaining at 60 mins in presence of NADPH and UDPGA by HPLC-MS/MS analysis; type: ADME; conditions: liver microsomes, read-out: Stability
[16] = Microsomal stability in mouse liver microsome assessed as parent compound remaining at 60 mins in presence of NADPH and UDPGA by HPLC-MS/MS analysis; type: ADME; conditions: liver microsomes, read-out: Stability
[17] = Toxicity in male CB17.SCID mouse implanted with human LNCaP cells assessed as body weight loss at 40 mg/kg, po measured upto 30 days; type: organism-based; conditions: in vivo, 720 h, time < 30 day
[18] = Acute toxicity in male CB17.SCID mouse implanted with human LNCaP cells assessed as body weight loss at 1250 mg/kg, po measured within 14 days; type: organism-based; conditions: in vivo, 336 h, time 14 day
[19] = Acute toxicity in male CB17.SCID mouse implanted with human LNCaP cells assessed as abnormal behavior at 1250 mg/kg, po measured within 14 days; type: organism-based; conditions: in vivo, 336 h, time 14 day

Structure (SMILES): Cc1oc(-c2cccc(C(F)(F)F)c2)cc1C(=O)Nc1nc(CN2CCOCC2)ns1
- IC50 [1]: 18 nM
- inhibition at 10 µM [2]: 20.7%
- Activity [3]: Non-toxic
- IC50 [4]: > 10000 nM
- Tmax [5]: 3.33 h
- Cmax [6]: 1880 ng/mL
- AUC(0-t) [7]: 20500 ng·h/mL
- MRT last [8]: 6.65 h
- MRT last [9]: 6 h
- bioavailability [10]: 61.5%
- half-life [11]: 1.58 h
- half-life [12]: 0.494 h
- microsomal CLint [13]: 7.3 µL/min/mg
- microsomal CLint [14]: 23.4 µL/min/mg
- remaining at 1 h [15]: 29.7%
- remaining at 1 h [16]: 32.3%
- Activity [17]: Non-toxic
- Activity [18]: Non-toxic
- Activity [19]: Non-toxic
